This is an account of results in US20220041647A1, “ESTRA-1,3,5(10)-TRIENE COMPOUNDS CONDENSED IN POSITION 16(17) WITH A PYRAZOLE RING AS INHIBITORS OF 17-HSD1” (FORENDO PHARMA LTD, priority 2018, published 2022).

Molecules are shown by their SMILES.

Common to all, as to type: biochemical
The target in assay [1] is T1, recombinant human 17β-HSD2 (Homo sapiens, UniProt P37059).
T1 construct: made in house; host or cells: Sd9 (Sf9) insect cells, baculovirus (Bac to Bac Expression System)
T1 sequence (P37059 1-387): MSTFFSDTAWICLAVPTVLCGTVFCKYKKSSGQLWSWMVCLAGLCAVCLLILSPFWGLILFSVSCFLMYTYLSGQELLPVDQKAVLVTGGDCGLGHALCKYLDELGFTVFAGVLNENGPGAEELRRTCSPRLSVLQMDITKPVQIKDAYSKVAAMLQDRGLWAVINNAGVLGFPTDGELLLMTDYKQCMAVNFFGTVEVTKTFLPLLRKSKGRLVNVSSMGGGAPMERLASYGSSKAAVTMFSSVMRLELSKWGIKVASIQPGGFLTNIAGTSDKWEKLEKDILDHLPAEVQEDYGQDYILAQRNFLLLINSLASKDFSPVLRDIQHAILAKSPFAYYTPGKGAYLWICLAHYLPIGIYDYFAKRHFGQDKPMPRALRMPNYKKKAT
Briefly: Inhibition of recombinant human 17β-HSD2 (estradiol to estrone conversion, HPLC/radioactivity). To be noted: compound 1 μM; 50 nM estradiol, 1 mM NADH, 30 min RT. How it is done: 17β-HSD2 production and isolation: Similarly to 173-HSD1 the Recombinant baculovirus was generated by the “Bac to Bac Expression System” (Invitrogen). Recombinant bacmid was transfected to Sd9 insect cells using “Cellfectin Reagent” (Invitrogen). 60 h later cells were harvested and supernatant were fractionated by the following protocol: • cells were dissolved into 40 ml of A-buffer (40 mM TRIS, pH8.0, 20% glycerol, 20 μM NAD, 0.4 mM PMSF, 150 mM NaCl, 0.5% dodecyl-β-maltoside+protease inhibitor cocktail) • cells were sonicated • lysate was incubated on ice for 15 min • lysate was centrifuged 5000 rpm 15 min, +4° C. • centrifugation of the supernatant 180 000 g 30 min, +4° C. • pellet was dissolved into 8 ml of A-buffer • not resuspended material was removed by centrifugation 5000 rpm 15 min, +4° C. • the clear supernatant was divided into 100 μl aliquots and were stored frozen until determination of enzymatic activity.
The amount of 173-HSD2 was analysed by immunoblotting and total protein concentration of each extract batch was determined.
Assay—Inhibition of recombinant human 17β-HSD2: Recombinant protein (4 μg/ml) was incubated in 20 mM KH2PO4 pH 8.5 with 50 nM estradiol (including 800 000 cpm/ml of ^3H-estradiol) and 1 mM NADH for 30 min at RT, in the presence of the potential inhibitor at concentrations 1 μM or 0.1 μM. Inhibitor stock solutions were prepared in DMSO. Final concentration of DMSO was adjusted to 1% in all samples. The enzyme reaction was stopped by addition of 10% trichloroacetic acid (final concentration). Samples were centrifuged in a microtiter plate at 4000 rpm for 10 min. Supernatants were applied to reverse phase HPLC on a Waters Symmetry C18 column, equipped with a Waters Sentry Guard column. Isocratic HPLC runs were performed at RT at a flow rate of1 ml/min in acetonitrile:water 48:52 as running solvent. Radioactivity was monitored in the eluate by a Scintillation Analyzer. Total radioactivity for estrone and estradiol were determined in each sample and percent conversion of estradiol to estrone was calculated according to the following formula:
% conversion=100×{(cpm estrone in sample with inhibitor)/[(cpm estradiol in sample with inhibitor)+(cpm estrone in sample with inhibitor)]}/{[(cpm estrone in sample without inhibitor)/[(cpm estradiol in sample without inhibitor)+(cpm estrone in sample without inhibitor)]}.
(§1) Percent inhibition was calculated followingly: % inhibition=100−% conversion.

Assay [2] relates to HSD1 enzyme that is expressed in rabbit placenta tissue. Briefly: Inhibition of E1 to E2 conversion in rabbit placenta tissue homogenate. To be noted: compound 100 nM, 30 nM estrone, 1 mM β-NADPH, 30 min. How it is done:
The assay is based on an enzymatic reaction where HSD1 enzyme that is expressed in rabbit placenta tissue converts its natural substance estrone (E1) to estradiol (E2) in the presence of a co-factor β-NADPH.
Homogenization of rabbit placenta tissue: Weight a piece of the frozen tissue into a Precellys ck28 bead tube. Add buffer solution (20 mM KH2PO4 with 1 mM EDTA, pH 7.4) in 1:2 ratio (e.g. 300 mg of tissue:600 μl reaction buffer solution). Insert the bead tubes to homogenizer and homogenize 2×30 s. 6000 rpm.
Centrifugated 5 min., 2600 rpm at +4° C. and collect supernatant. Aliquots of homogenate are stored in −80° C.
Assay—Inhibition of E1 to E2 conversion in rabbit placenta tissue: The reaction takes place in a buffer solution (20 mM KH2PO4 with 1 mM EDTA, pH 7,4), including appropriate amount of rabbit placenta homogenate, co-factor (1 mM β-NADPH), Substrate (30 nM estrone), labelled substrate as tracer (5 nM [^3H]-estrone), and the potential inhibitor at concentrations 1 μM or 0.1 μM. Inhibitor stock solutions were prepared in DMSO. Final concentration of DMSO was adjusted to 1% in all samples. During a 30-minute incubation part of the estrone is converted to estradiol. The reaction is stopped by lowering the pH to 1 with 10% trichloro acetic acid (TCA). The substrate and conversion products are analyzed by HPLC and a Scintillation counter analyzer. Total radioactivity for estrone and estradiol were determined in each sample and percent conversion of estrone to estradiol was calculated according to the following formula:
% conversion=100×{(cpm estradiol in sample with inhibitor)/[(cpm estrone in sample with inhibitor)+(cpm estradiol in sample with inhibitor)]}/{(cpm estradiol in sample without inhibitor)/[(cpm estrone in sample without inhibitor)+(cpm estradiol in sample without inhibitor)]}.
as §1

Assay [3] has as its target T2, recombinant human 17β-HSD1 (Homo sapiens, UniProt P14061).
T2 construct: made in house; host or cells: Sd9 (Sf9) insect cells, baculovirus (Bac to Bac Expression System)
T2 sequence (P14061 1-328): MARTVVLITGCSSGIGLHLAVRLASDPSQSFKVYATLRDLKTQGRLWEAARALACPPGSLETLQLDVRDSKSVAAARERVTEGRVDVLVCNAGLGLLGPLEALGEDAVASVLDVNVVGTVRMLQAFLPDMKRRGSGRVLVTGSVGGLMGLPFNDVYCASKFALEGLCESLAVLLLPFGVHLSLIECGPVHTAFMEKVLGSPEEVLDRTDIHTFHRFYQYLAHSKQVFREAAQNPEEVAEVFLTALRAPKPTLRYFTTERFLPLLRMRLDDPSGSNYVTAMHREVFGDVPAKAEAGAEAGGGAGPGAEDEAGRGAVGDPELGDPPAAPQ
Briefly: Inhibition of recombinant human 17β-HSD1 (estrone to estradiol conversion, HPLC/radioactivity). To be noted: compound 100 nM; 30 nM estrone, 1 mM NADPH, 30 min RT. How it is done: 17β-HSD1 production and isolation: Recombinant baculovirus was generated by the “Bac to Bac Expression System” (Invitrogen). Recombinant bacmid was transfected to Sd9 insect cells using “Cellfectin Reagent” (Invitrogen). 60 h later cells were harvested; the microsomal fraction was isolated as described by Puranen, T. J., Poutanen, M. H., Peltoketo, H. E., Vihko, P. T. and Vihko, R. K. (1994) Site-directed mutagenesis of the putative active site of human 17 β-hydroxysteroid dehydrogenase type 1. Biochem. J. 304: 289-293. Aliquots were stored frozen until determination of enzymatic activity.
Assay—Inhibition of recombinant human 17β-HSD1: Recombinant protein (1 μg/ml) was incubated in 20 mM KH2PO4 pH 7.4 with 30 nM estrone (including 800 000 cpm/ml of ^3H-estrone) and 1 mM NADPH for 30 min at RT, in the presence of the potential inhibitor at concentrations 1 μM or 0.1 μM. Inhibitor stock solutions were prepared in DMSO. Final concentration of DMSO was adjusted to 1% in all samples. The enzyme reaction was stopped by addition of 10% trichloroacetic acid (final concentration). Samples were centrifuged in a microtiter plate at 4000 rpm for 10 min. Supernatants were applied to reverse phase HPLC on a Waters Symmetry C18 column, equipped with a Waters Sentry Guard column. Isocratic HPLC runs were performed at RT at a flow rate of 1 ml/min in acetonitrile:water 48:52 as running solvent. Radioactivity was monitored in the eluate by a Scintillation Analyzer. Total radioactivity for estrone and estradiol were determined in each sample and percent conversion of estrone to estradiol was calculated according to the following formula:
% conversion=100×{(cpm estradiol in sample with inhibitor)/[(cpm estrone in sample with inhibitor)+(cpm estradiol in sample with inhibitor)]}/{[(cpm estradiol in sample without inhibitor)/[(cpm estrone in sample without inhibitor)+(cpm estradiol in sample without inhibitor)]}.
as §1

In general, inhibition refers to the change of the read-out against control, counted positive when it falls. Consider `Cn1cc(NC(=O)CC[C@@H]2c3c[nH]nc3[C@@]3(C)CCC4c5cccc(F)c5CCC4C23)cn1` (stereo partly drawn) [Compound 63, 3-((8aS,12S)-3-fluoro-8a-methyl-1,2,6b,7,8,8a,10,12,12a,12b-decahydronaphtho[2′,1′:4,5]indeno[1,2-c]pyrazol-12-yl)-N-(1-methyl-1H-pyrazol-4-yl)propanamide], for which the inhibition at 1 µM in assay [1] is 2%. Also, the “Rabbit placenta inhibition % @100 nM” value in assay [2] turned out to be 62%. For the same compound, the inhibition at 0.1 µM in assay [3] is 96%.

Turning to `Cc1nnc(NC(=O)CC[C@@H]2c3c[nH]nc3[C@@]3(C)CCC4c5cccc(F)c5CCC4C23)o1` (stereo partly drawn) [Compound 66, 3-((8aS,12S)-3-fluoro-8a-methyl-1,2,6b,7,8,8a,10,12,12a,12b-decahydronaphtho[2′,1′:4,5]indeno[1,2-c]pyrazol-12-yl)-N-(5-methyl-1,3,4-oxadiazol-2-yl)propanamide], in assay [1], the inhibition at 1 µM amounted to 3%. For the same compound, the “Rabbit placenta inhibition % @100 nM” value in assay [2] came to 39%. For the same compound, the inhibition at 0.1 µM in assay [3] came out at 74%.

With `C[C@]12CCC3c4cccc(F)c4CCC3C1[C@H](CCC(=O)NN1CCCCC1)c1c[nH]nc12` (stereo partly drawn) [Compound 69, 3-((8aS,12S)-3-fluoro-8a-methyl-1,2,6b,7,8,8a,10,12,12a,12b-decahydronaphtho[2′,1′:4,5]indeno[1,2-c]pyrazol-12-yl)-N-(piperidin-1-yl)propanamide], the inhibition at 1 µM in assay [1] turned out to be 1%. Also, the “Rabbit placenta inhibition % @100 nM” value in assay [2] was determined as 10%. The inhibition at 0.1 µM in assay [3] is 93%.

With `CN1CCC(N2CCN(C(=O)CC[C@@H]3c4c[nH]nc4[C@@]4(C)CCC5c6cccc(F)c6CCC5C34)CC2)CC1` (stereo partly drawn) [Compound 75, 3-((8aS,12S)-3-fluoro-8a-methyl-1,2,6b,7,8,8a,10,12,12a,12b-decahydronaphtho[2′,1′:4,5]indeno[1,2-c]pyrazol-12-yl)-1-(4-(1-methylpiperidin-4-yl)piperazin-1-yl)propan-1-one], the inhibition at 1 µM in assay [1] was 2%. Moreover, the “Rabbit placenta inhibition % @100 nM” value in assay [2] was 15%. For the same compound, the inhibition at 0.1 µM in assay [3] came out at 71%.

Regarding `Cc1cc(NC(=O)CC[C@@H]2c3c[nH]nc3[C@@]3(C)CCC4c5cccc(F)c5CCC4C23)no1` (stereo partly drawn) [Compound 78, 3-((8aS,12S)-3-fluoro-8a-methyl-1,2,6b,7,8,8a,10,12,12a,12b-decahydronaphtho[2′,1′:4,5]indeno[1,2-c]pyrazol-12-yl)-N-(5-methylisoxazol-3-yl)propanamide], the inhibition at 1 µM in assay [1] was determined as 3%. Besides, the “Rabbit placenta inhibition % @100 nM” value in assay [2] is on record as 39%. Further, the inhibition at 0.1 µM in assay [3] turned out to be 87%.

Take `C[C@]12CCC3c4cccc(F)c4CCC3C1[C@H](CCC(=O)Nc1nncs1)c1c[nH]nc12` (stereo partly drawn) [Compound 81, 3-((8aS,12S)-3-fluoro-8a-methyl-1,2,6b,7,8,8a,10,12,12a,12b-decahydronaphtho[2′,1′:4,5]indeno[1,2-c]pyrazol-12-yl)-N-(1,3,4-thiadiazol-2-yl)propanamide]: the inhibition at 1 µM in assay [1] came to 3%. The “Rabbit placenta inhibition % @100 nM” value in assay [2] was determined as 31%. For the same compound, in assay [3], the inhibition at 0.1 µM worked out at 81%.

As to `CC(C)(C)c1cc(NC(=O)CC[C@@H]2c3c[nH]nc3[C@@]3(C)CCC4c5ccc(F)cc5CCC4C23)no1` (stereo partly drawn) [Compound 102, N-(5-(tert-butyl)isoxazol-3-yl)-3-((8aS,12 S)-4-fluoro-8a-methyl-1,2,6b,7,8,8a,10,12,12a,12b-decahydronaphtho[2′,1′:4,5]indeno[1,2-c]pyrazol-12-yl)propanamide], the inhibition at 1 µM in assay [1] worked out at 8%. In addition, the “Rabbit placenta inhibition % @100 nM” value in assay [2] amounted to 19%. In addition, the inhibition at 0.1 µM in assay [3] stood at 80%.

As for `C[C@]12CCC3c4ccc(F)cc4CCC3C1[C@H](CCC(=O)Nc1cccc(F)n1)c1c[nH]nc12` (stereo partly drawn) [Compound 105, 3-((8aS,12S)-4-fluoro-8a-methyl-1,2,6b,7,8,8a,10,12,12a,12b-decahydronaphtho[2′,1′:4,5]indeno[1,2-c]pyrazol-12-yl)-N-(6-fluoropyridin-2-yl)propanamide], in assay [1], the inhibition at 1 µM is 9%. For the same compound, in assay [2], the “Rabbit placenta inhibition % @100 nM” value is recorded as 28%. For the same compound, the inhibition at 0.1 µM in assay [3] turned out to be 82%.

On to `COc1ccc(NC(=O)CC[C@@H]2c3c[nH]nc3[C@@]3(C)CCC4c5ccc(F)cc5CCC4C23)nn1` (stereo partly drawn) [Compound 108, 3-((8aS,12S)-4-fluoro-8a-methyl-1,2,6b,7,8,8a,10,12,12a,12b-decahydronaphtho[2′,1′:4,5]indeno[1,2-c]pyrazol-12-yl)-N-(6-methoxypyridazin-3-yl)propanamide], for which the inhibition at 1 µM in assay [1] is -2%. In addition, in assay [2], the “Rabbit placenta inhibition % @100 nM” value was found to be 45%. Also, the inhibition at 0.1 µM in assay [3] came to 56%.
